Laboratory results from article PMC12472391, “Borylated Five-Membered Ring Iminosugars: Synthesis, Spectroscopic Analysis, and Biological Evaluation for Glycosidase Inhibition and Anticancer Properties for Application in Boron Neutron Capture Therapy (BNCT)—Part 1” (Pharmaceuticals, 2025).

Assays:
α-D-glucosidase (rice) = α-D-glucosidase (rice) (Oryza sativa subsp. japonica, UniProt Q653V7); assay: Glycosidase inhibition, Table 6 (Laboratory 1); type: biochemical
[1] = Appearance: 1 mL of water added to 1 mg of solid, and mixed; type: physicochemical
[2] = target: T1, β-D-glucuronidase (E. coli) (Escherichia coli, UniProt P05804); assay: Glycosidase inhibition, Table 6 (Laboratory 1); type: biochemical
T1 construct: purchased Sigma-Aldrich Co
Source text: (§1) The enzymes α-D-glucosidase (from yeast), β-D-glucosidases (from almond and bovine liver), α-D-galactosidase (from coffee beans), β-D-galactosidase (from bovine liver), α-D-mannosidase (from Jack bean), β-D-mannosidase (from snail), α-L-rhamnosidase (from Penicillium decumbens), α-L-fucosidase (from bovine kidney), trehalase (from porcine kidney), β-D-glucuronidases (from E. coli and bovine liver), amyloglucosidase (from A. niger), para-nitrophenyl glycosides, and various disaccharides were purchased from Sigma-Aldrich Co. (St. Louis, MO, USA).
(§2) Brush border membranes were prepared from the rat small intestine according to the method of Kessler et al., and were assayed at pH 6.8 for rat intestinal maltase using maltose. For rat intestinal maltase, porcine kidney trehalase, and A. niger amyloglucosidase activities, the reaction mixture contained maltose (25 mM) and the appropriate amount of enzyme, and the incubations were performed for 10–30 min at 37 °C. The reaction was stopped by heating at 100 °C for 3 min. After centrifugation (600× g; 10 min), the resulting reaction mixture was added to the Glucose CII-test Wako (Wako Pure Chemical Ind., Osaka, Japan). The absorbance at 505 nm was measured to determine the amount of the released D-glucose. Other glycosidase activities were determined using an appropriate para-nitrophenyl glycoside as substrate at the optimum pH of each enzyme. The reaction mixture contained the substrate (2 mM) and the appropriate amount of enzyme. The reaction was stopped by the addition of Na2CO3 (400 mM). The released para-nitrophenol was measured spectrometrically at 400 nm. All reactions run in methanol.

[3] = target: T2, α-D-galactosidase (from coffee beans) (Coffea arabica, UniProt Q42656); assay: Glycosidase inhibition, Table 6 (Laboratory 1); type: biochemical
T2 construct: purchased Sigma-Aldrich Co
Source text: as §1, §2

[4] = target: T3, α,α-trehalase (porcine kidney) (Sus scrofa, UniProt I3LIR5); assay: Glycosidase inhibition, Table 6 (Laboratory 1); type: biochemical
T3 construct: purchased Sigma-Aldrich Co
T3 sequence (I3LIR5 24-583): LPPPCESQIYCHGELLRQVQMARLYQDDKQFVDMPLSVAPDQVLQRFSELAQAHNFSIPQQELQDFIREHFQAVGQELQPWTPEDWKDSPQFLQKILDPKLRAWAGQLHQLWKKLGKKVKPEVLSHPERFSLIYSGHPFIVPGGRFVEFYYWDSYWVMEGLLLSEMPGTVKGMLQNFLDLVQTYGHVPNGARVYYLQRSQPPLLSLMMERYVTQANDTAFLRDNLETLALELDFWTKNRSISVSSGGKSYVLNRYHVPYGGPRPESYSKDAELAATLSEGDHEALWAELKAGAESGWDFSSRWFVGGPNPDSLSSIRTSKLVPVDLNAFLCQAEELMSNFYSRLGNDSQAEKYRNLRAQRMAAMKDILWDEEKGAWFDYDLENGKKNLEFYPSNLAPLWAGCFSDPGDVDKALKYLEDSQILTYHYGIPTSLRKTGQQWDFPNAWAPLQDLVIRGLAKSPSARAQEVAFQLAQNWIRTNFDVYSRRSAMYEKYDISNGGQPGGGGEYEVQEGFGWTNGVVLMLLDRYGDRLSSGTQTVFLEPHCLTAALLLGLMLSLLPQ
Source text: as §1, §2

[5] = target: T4, amyloglucosidase (from A. niger) (Aspergillus niger, UniProt P69328); assay: Glycosidase inhibition, Table 6 (Laboratory 1); type: biochemical
T4 construct: purchased Sigma-Aldrich Co
Source text: as §1, §2

[6] = target: T5, β-D-galactosidase (bovine liver) (Bos taurus, UniProt Q58D55); assay: Glycosidase inhibition, Table 6 (Laboratory 1); type: biochemical
T5 sequence (Q58D55 28-653): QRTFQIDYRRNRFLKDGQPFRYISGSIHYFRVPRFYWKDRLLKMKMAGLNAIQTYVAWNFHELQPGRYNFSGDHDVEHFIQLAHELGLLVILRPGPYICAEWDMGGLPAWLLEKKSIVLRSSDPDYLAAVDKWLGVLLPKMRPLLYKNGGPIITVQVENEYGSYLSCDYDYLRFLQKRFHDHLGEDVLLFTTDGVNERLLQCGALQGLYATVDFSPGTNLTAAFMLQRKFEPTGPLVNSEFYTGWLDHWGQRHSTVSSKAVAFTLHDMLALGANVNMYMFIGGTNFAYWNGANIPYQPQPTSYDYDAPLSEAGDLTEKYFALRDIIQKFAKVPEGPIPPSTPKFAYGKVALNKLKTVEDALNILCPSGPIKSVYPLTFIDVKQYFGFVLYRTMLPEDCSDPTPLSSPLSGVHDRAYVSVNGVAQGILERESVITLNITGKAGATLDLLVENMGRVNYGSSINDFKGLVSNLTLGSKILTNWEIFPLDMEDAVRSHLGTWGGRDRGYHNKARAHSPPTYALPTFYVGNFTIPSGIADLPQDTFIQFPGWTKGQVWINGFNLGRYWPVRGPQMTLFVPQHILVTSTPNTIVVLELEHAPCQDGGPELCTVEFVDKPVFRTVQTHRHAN
Source text: as §1, §2

[7] = system: β-D-glucosidase (bovine liver); assay: Glycosidase inhibition, Table 6 (Laboratory 1); type: biochemical
Source text: as §1, §2

[8] = system: α-D-glucosidase (rat intestinal maltase); assay: Glycosidase inhibition, Table 6 (Laboratory 1); type: biochemical
Source text: as §1, §2

[9] = target: T6, α-D-glucosidase (from yeast) (Saccharomyces cerevisiae, UniProt P53341); assay: Glycosidase inhibition, Table 6 (Laboratory 1); type: biochemical
T6 construct: purchased Sigma-Aldrich Co
Source text: as §1, §2

[10] = system: β-D-mannosidase (from snail); assay: Glycosidase inhibition, Table 6 (Laboratory 1); type: biochemical
Source text: as §1, §2

β-D-glucosidase (almond) = assay: Glycosidase inhibition, Table 6 (Laboratory 1); type: biochemical
Source text: as §1, §2

[11] = system: β-D-glucuronidase (bovine liver); assay: Glycosidase inhibition, Table 6 (Laboratory 1); type: biochemical
Source text: as §1, §2

[12] = target: T7, α-L-fucosidase (from bovine kidney) (Bos taurus, UniProt Q2KIM0); assay: Glycosidase inhibition, Table 6 (Laboratory 1); type: biochemical
T7 construct: purchased Sigma-Aldrich Co
T7 sequence (Q2KIM0 23-468): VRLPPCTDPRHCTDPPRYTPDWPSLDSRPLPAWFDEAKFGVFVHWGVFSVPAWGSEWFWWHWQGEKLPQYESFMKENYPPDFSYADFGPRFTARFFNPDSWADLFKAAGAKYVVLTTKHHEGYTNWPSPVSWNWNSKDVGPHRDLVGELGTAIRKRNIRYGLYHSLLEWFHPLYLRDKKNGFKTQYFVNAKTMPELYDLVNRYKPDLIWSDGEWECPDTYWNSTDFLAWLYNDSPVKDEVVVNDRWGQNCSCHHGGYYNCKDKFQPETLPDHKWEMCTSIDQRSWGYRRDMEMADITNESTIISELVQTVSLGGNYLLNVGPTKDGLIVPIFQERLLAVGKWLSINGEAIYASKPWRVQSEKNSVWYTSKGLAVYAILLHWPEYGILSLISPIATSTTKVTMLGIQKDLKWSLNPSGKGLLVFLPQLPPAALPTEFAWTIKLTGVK
Source text: as §1, §2

T6 sequence (P53341 whole entry): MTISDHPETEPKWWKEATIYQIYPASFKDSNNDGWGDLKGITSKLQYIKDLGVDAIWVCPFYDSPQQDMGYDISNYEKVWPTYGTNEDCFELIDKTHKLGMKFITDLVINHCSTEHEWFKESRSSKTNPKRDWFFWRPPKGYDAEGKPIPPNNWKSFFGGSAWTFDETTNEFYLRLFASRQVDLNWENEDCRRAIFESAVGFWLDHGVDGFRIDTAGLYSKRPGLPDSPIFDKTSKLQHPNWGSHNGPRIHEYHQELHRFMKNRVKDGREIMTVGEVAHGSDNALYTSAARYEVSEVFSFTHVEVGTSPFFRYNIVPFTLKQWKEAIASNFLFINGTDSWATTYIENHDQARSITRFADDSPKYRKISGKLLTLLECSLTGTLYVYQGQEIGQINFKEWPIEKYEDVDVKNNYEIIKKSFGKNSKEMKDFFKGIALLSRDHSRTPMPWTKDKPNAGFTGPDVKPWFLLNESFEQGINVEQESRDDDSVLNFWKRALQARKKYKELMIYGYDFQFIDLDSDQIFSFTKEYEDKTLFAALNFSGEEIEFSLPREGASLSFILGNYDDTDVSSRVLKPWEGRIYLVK
T4 sequence (P69328 25-640): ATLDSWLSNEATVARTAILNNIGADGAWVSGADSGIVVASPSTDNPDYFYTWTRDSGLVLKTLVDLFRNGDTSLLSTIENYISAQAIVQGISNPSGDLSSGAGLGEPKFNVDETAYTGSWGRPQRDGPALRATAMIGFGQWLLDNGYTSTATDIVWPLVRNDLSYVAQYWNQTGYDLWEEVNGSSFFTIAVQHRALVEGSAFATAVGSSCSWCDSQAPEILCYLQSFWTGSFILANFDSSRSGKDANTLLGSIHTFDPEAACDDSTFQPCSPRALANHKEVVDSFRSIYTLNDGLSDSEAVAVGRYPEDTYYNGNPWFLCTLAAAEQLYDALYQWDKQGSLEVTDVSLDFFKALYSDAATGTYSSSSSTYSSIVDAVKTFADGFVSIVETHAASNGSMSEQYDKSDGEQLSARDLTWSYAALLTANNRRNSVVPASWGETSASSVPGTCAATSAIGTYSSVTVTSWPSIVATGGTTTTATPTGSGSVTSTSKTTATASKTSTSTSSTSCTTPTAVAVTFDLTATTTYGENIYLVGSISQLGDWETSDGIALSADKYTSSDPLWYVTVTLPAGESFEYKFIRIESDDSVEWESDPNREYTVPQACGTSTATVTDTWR
α-D-glucosidase (rice), sequence (Q653V7 34-885): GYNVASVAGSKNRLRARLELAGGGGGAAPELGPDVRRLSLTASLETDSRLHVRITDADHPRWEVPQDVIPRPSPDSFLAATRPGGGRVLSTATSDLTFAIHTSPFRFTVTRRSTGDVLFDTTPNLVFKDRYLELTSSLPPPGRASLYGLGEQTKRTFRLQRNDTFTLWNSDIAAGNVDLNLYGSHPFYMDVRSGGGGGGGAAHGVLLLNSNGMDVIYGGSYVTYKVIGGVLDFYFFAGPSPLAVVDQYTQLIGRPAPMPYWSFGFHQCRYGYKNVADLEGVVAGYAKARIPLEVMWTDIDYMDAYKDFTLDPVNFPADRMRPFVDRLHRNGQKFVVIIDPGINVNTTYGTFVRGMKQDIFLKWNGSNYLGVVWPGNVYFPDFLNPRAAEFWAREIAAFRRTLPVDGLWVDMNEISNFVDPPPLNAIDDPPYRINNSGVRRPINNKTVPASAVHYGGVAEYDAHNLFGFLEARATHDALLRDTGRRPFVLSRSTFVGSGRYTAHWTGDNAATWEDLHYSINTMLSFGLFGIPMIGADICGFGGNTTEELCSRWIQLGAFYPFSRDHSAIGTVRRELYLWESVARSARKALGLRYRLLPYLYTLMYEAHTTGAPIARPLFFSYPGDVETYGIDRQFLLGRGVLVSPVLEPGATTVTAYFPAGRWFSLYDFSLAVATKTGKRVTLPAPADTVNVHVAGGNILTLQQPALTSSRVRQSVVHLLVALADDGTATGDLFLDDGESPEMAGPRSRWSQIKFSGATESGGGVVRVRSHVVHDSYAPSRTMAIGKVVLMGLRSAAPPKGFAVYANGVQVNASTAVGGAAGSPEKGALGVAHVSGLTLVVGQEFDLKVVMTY
T2 sequence (Q42656 16-378): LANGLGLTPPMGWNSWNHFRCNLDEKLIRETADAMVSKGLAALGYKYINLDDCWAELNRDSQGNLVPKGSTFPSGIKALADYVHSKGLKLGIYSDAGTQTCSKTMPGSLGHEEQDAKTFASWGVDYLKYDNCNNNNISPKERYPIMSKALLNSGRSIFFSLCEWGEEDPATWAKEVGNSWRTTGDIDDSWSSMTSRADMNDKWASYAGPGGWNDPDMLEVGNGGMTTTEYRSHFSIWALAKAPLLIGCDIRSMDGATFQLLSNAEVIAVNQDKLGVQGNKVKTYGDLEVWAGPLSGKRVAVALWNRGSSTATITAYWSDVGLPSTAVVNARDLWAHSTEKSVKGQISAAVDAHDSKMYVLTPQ
T1 sequence (P05804 whole entry): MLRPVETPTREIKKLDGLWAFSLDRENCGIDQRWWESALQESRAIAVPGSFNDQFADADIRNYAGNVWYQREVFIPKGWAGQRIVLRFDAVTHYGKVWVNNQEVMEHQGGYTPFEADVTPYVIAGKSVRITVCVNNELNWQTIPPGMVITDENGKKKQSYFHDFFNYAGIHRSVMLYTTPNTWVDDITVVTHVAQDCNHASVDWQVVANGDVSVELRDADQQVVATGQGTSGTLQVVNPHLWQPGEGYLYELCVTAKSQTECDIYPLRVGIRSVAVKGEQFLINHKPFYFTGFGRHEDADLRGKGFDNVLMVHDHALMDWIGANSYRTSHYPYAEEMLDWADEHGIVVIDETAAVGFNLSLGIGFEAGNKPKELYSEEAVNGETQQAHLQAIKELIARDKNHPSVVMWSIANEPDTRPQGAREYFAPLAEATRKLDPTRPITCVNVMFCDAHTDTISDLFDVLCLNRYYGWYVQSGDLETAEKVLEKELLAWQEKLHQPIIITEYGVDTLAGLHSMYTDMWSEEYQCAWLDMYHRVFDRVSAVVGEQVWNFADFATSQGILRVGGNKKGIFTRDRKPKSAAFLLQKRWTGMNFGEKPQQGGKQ

OC[C@H](O)[C@@H]1[C@H](O)[C@H](O)CN1Cc1ccccc1 [Compound 5, N-Benzyl-1,4-dideoxy-1,4-imino-L-gulitol]
inhibition at 100 µM (α-D-glucosidase (rice)): 0% | Appearance [1]: In solution | inhibition at 100 µM [2]: 0% | inhibition at 100 µM [3]: 1.5% | inhibition at 100 µM [4]: 0% | inhibition at 100 µM [5]: 2.1% | inhibition at 100 µM [6]: 0% | β-D-Glucosidase Bovine Liver, inhibition % at 100 μM [7]: ^c NI ^d (3.3%) | α-D-Glucosidase Rat Intestinal Maltase, inhibition % at 100 μM [8]: ^c NI ^d (12.9%) | inhibition at 100 µM [9]: 2.9% | β-D-Mannosidase Snail, inhibition % at 100 μM [10]: ^c NI ^d (6.9%) | β-D-Glucosidase Almond, inhibition % at 100 μM (β-D-glucosidase (almond)): ^c NI ^d (0%) | β-D-Glucuronidase Bovine Liver, inhibition % at 100 μM [11]: ^c NI ^d (3.7%)

N[C@@H](Cc1ccc(B(O)O)cc1)C(=O)O [BPA, 4-borono-L-phenylalanine, reference compound]
Appearance [1]: Some in solution with undissolved sediment | inhibition at 100 µM [6]: 10.9% | β-D-Glucosidase Bovine Liver, inhibition % at 100 μM [7]: ^c NI ^d (0%) | α-D-Glucosidase Rat Intestinal Maltase, inhibition % at 100 μM [8]: ^c NI ^d (0%) | inhibition at 100 µM [9]: 0% | β-D-Mannosidase Snail, inhibition % at 100 μM [10]: ^c NI ^d (2.1%) | β-D-Glucosidase Almond, inhibition % at 100 μM (β-D-glucosidase (almond)): ^c NI ^d (0%) | β-D-Glucuronidase Bovine Liver, inhibition % at 100 μM [11]: ^c NI ^d (7.4%)

OC[C@H](O)[C@@H]1[C@H](O)[C@H](O)CN1Cc1ccc(B(O)O)cc1 [para 8, N-(4-Methylphenylboronic acid)-1,4-dideoxy-1,4-imino-L-gulitol]
inhibition at 1000 µM (α-D-glucosidase (rice)): 8.2% | Appearance [1]: In solution | inhibition at 1000 µM [2]: 22.9% | inhibition at 1000 µM [3]: 1.4% | inhibition at 1000 µM [4]: 0% | inhibition at 1000 µM [5]: 3.6% | β-D-Glucosidase Bovine Liver, inhibition % at 1000 μM [7]: ^a NI ^b (27.1%) | α-D-Glucosidase Rat Intestinal Maltase, inhibition % at 1000 μM [8]: ^a NI ^b (10.5%) | inhibition at 1000 µM [9]: 5.6% | β-D-Mannosidase Snail, inhibition % at 1000 μM [10]: ^a NI ^b (6.9%) | inhibition at 1000 µM [12]: 1.7% | β-D-Glucosidase Almond, inhibition % at 1000 μM (β-D-glucosidase (almond)): ^a NI ^b (28%) | β-D-Glucuronidase Bovine Liver, inhibition % at 1000 μM [11]: ^a NI ^b (6.0%)

OC1O[C@@H]2[C@H]([C@H]1O)N(Cc1ccccc1)C[C@H]2O (stereo partly drawn) [Compound 4, N-Benzyl-3,6-dideoxy-3,6-imino-D-gulofuranose]
inhibition at 1000 µM (α-D-glucosidase (rice)): 1.3% | Appearance [1]: In solution | inhibition at 1000 µM [2]: 7% | inhibition at 1000 µM [3]: 1.8% | inhibition at 1000 µM [4]: 0% | inhibition at 1000 µM [5]: 0.2% | β-D-Glucosidase Bovine Liver, inhibition % at 1000 μM [7]: ^a NI ^b (16.4%) | α-D-Glucosidase Rat Intestinal Maltase, inhibition % at 1000 μM [8]: ^a NI ^b (22.4%) | inhibition at 1000 µM [9]: 0% | β-D-Mannosidase Snail, inhibition % at 1000 μM [10]: ^a NI ^b (1.0%) | inhibition at 1000 µM [12]: 0.4% | β-D-Glucosidase Almond, inhibition % at 1000 μM (β-D-glucosidase (almond)): ^a NI ^b (27.4%) | β-D-Glucuronidase Bovine Liver, inhibition % at 1000 μM [11]: ^a NI ^b (7.0%)

CC1(C)O[C@H]2O[C@H]3[C@@H]([C@H]2O1)N(Cc1ccc(B2OC(C)(C)C(C)(C)O2)cc1)C[C@H]3O [para 6, N-(4-Methylphenylboronic acid pinacol ester)-3,6-dideoxy-3,6-imino-1,2-O-isopropylidene-α-D-gulofuranose]
inhibition at 100 µM (α-D-glucosidase (rice)): 0% | Appearance [1]: Completely insoluble | inhibition at 100 µM [2]: 3.2% | inhibition at 100 µM [3]: 1.6% | inhibition at 100 µM [4]: 0% | inhibition at 100 µM [5]: 0% | inhibition at 100 µM [6]: 22.3% | β-D-Glucosidase Bovine Liver, inhibition % at 100 μM [7]: ^c NI ^d (13%) | α-D-Glucosidase Rat Intestinal Maltase, inhibition % at 100 μM [8]: ^c NI ^d (0%) | inhibition at 100 µM [9]: 3.4% | β-D-Mannosidase Snail, inhibition % at 100 μM [10]: ^c NI ^d (0%) | inhibition at 100 µM [12]: 0% | β-D-Glucosidase Almond, inhibition % at 100 μM (β-D-glucosidase (almond)): ^c NI ^d (0%) | β-D-Glucuronidase Bovine Liver, inhibition % at 100 μM [11]: ^c NI ^d (0%)

OB(O)c1ccc(CN2CC(O)C3OC(O)C(O)C32)cc1 [para 7, N-(4-Methylphenylboronic acid)-3,6-dideoxy-3,6-imino-D-gulofuranose]
inhibition at 1000 µM (α-D-glucosidase (rice)): 0% | Appearance [1]: In solution | inhibition at 1000 µM [2]: 17.8% | inhibition at 1000 µM [3]: 0% | inhibition at 1000 µM [4]: 0% | inhibition at 1000 µM [5]: 2.7% | β-D-Glucosidase Bovine Liver, inhibition % at 1000 μM [7]: ^a NI ^b (38.8%) | α-D-Glucosidase Rat Intestinal Maltase, inhibition % at 1000 μM [8]: ^a NI ^b (0%) | inhibition at 1000 µM [9]: 0% | β-D-Mannosidase Snail, inhibition % at 1000 μM [10]: ^a NI ^b (4.1%) | inhibition at 1000 µM [12]: 0.8% | β-D-Glucosidase Almond, inhibition % at 1000 μM (β-D-glucosidase (almond)): ^a NI ^b (43.6%) | β-D-Glucuronidase Bovine Liver, inhibition % at 1000 μM [11]: ^a NI ^b (3.5%)
